Reference: US20200003756A1, “METHOD FOR OBSERVING SEBACEOUS GLAND” (MANDOM CORPORATION, priority 2017, published 2020)

Test system: sebaceous-gland-structure A
Test: Degree of sebum production from three-dimensional image analysis of outermost layer (Example 4)
Format: cell-based
Settings: linoleic acid 1×10^−4 M, 24 hours
Procedure: Linoleic acid and phytic acid as test substances were added to the mixed medium obtained in Preparation Example 1 (test sample A) so that the concentration of linoleic acid was 1×10^−4M and so that the concentration of the test sample was 100 μM, to obtain a test sample E. One milliliter of the test sample A was added to each well of a 24-well plate. Text, the sebaceous-gland-structure A obtained in Preparation Example 6 was cultured in a suspended state in the test sample A contained in each well of the 24-well plate in the presence of 5% by volume carbon dioxide at 37° C. for 24 hours, to contact the sebaceous-gland-structure A with the test sample A (Experiment number 10). In addition, the sebaceous-gland-structure A was contacted with the test sample B (Experiment number 11) or the test sample E (Experiment number 12) in the same manner as in Experiment, number 10 except that in Experiment number 10, the test sample B obtained in Example 1(1) (Experiment number 11) or the test sample E obtained in Example 4(1) (Experiment number 12) was used in place of the test sample A. Each of observation samples of Experiment numbers 10 to 12 was obtained in the same manner as in Preparation Example 7 except that in Preparation Example 7, the cultured sebaceous-gland-structure A obtained in Example 4(2) (Experiment numbers 10 to 12) was used in place of the cultured sebaceous-gland-structure A obtained in Preparation Example 6. The appearance of the sebaceous-gland-structure A contained in the observation sample of each of Experiment numbers 10 to 12 obtained in Example 4(3) was observed under a confocal microscope by using image analysis software (manufactured b Bitplane AG, trade name: Imaris), thereby giving three-dimensional image of the sebaceous-gland-structure A. Next, information of the outermost layer of the sebaceous-gland-structure A was extracted from the data of the resulting three-dimensional image by using image analysis software (manufactured by Bitplane AG, trade name: Imaris). Thereafter, the whole volume of the cells present in the outermost layer was calculated from the extracted information, and thereafter the sebum droplets contained in the outermost layer were counted. Using the whole volume of the cells present in the outermost layer and the number of lipid droplets of the sebum the degree of sebum production was calculated according to Formula (I): [Degree of Sebum production]=[Number of lipid droplets of sebum]/[Whole volume of cells present in outermost layer] (I)

SMILES: CCCCC/C=C\C/C=C\CCCCCCCC(=O)O [linoleic acid, Linoleic acid]
- sebum production-regulating action (conclusion from FIG. 11): sebum production-promoting action
- degree of sebum production (number of lipid droplets of sebum / whole volume of cells present in outermost layer) (test sample B, compared with test sample A not containing linoleic acid, FIG. 11): higher
